Results reported in patent US20230406883A1, “COMPOUNDS AND THEIR USE IN TREATMENT OF TACHYKININ RECEPTOR MEDIATED DISORDERS” (Embark Biotech ApS, priority 2020, published 2023).
Numbered stars: 1 amine (or outer) side, 2 acyl side, 3 side chain; on linkers, the order of the positions; unused ones are H or OH. Square brackets hold non-standard residues; d marks the D form. Peptide text beside a SMILES is read from it. * marks the point of attachment. C18 diacid = O=C(O)CCCCCCCCCCCCCCCCC(=O)*; γGlu = O=C(O)[C@H](CCC(=O)[*:2])N[*:1]; NMeL = CN[C@@H](CC(C)C)C(=O)O; hSer = N[C@@H](CCO)C(=O)O; Nle = CCCC[C@H](N)C(=O)O; AEEA = NCCOCCOCC(=O)O

Columns and labels:
[1] = biological target: T1, hNK2R (Homo sapiens, UniProt P21452); test: Indirect human serum albumin binding by IP3 assay, 0.2% ovalbumin vs 1% HSA; type: cell-based; conditions: for hNK2R, Albumin binding Efficacy (%)-ovalbumin: 0.2% ovalbumin; for hNK2R, Albumin binding Efficacy (%)-1% human serum albumin / EC50: 1% HSA; for EC50: read-out: hNK2R, Albumin binding EC50 (nM)-1% human serum albumin
T1 construct: host or cells: COS-7
T1 sequence (P21452 1-398): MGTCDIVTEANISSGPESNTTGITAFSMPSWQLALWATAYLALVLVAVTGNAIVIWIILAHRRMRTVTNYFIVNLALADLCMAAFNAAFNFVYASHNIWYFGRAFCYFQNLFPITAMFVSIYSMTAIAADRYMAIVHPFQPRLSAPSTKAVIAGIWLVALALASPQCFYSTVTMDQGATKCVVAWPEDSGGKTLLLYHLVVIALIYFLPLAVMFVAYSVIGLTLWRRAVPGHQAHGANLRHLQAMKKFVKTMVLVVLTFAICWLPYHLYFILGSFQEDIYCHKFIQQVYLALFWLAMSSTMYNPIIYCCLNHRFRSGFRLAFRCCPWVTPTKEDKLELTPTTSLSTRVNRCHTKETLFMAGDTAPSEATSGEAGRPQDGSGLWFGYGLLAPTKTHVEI
Method: Agonist-induced G-protein coupled receptor (GPCR) activation was measured by an Inositol-1,4,5-Trisphosphate [^3H] Radioreceptor Assay (IPs Assay). Assays were carried out using COS-7 cells transiently transfected by calcium phosphate transfection with a vector pcDNA3.1(+) encoding one of the indicated receptors (Genscript). Briefly, DNA mixed with CaCl2 (2 M) and TE-buffer (10 mM Tris-HCl, 1 mM EDTA, pH 7.5) was dropwise added to 2×HBS (50 mM HEPES, 280 mM NaCl, 1.5 mM NaH2PO4, pH 7.2) and incubated for 45 min at room temperature (22±2° C.). The mixture and a final concentration of 100 μM Chloroquine were added to the cells and left to incubate for 5 hours at 37° C. under standard cell culture conditions (10% CO2) before changing medium to fresh medium containing 5 μl/mL Myo-[2-^3H(N)]-inositol (labeling medium).
The indirect HSA binding IP3 assay takes advantage of the tachykinin receptors' ability to induce production of the inositol trisphosphate (IP3) second messenger upon agonist (ligand) binding on receptor expressing cells following an initial ^3H-inositol labeling period. The assay relies on the assumption that high peptide HSA binding will result in low receptor-mediated production of the second messenger IP3. Thus, the assay is an indirect assessment HSA binding.
Assay solutions used: Wash buffer (HBSS), Assay buffer 0.2% OvAlb (HBSS+10 mM LiCl and 0,2% w/v ovalbumin) or Assay buffer 1% HSA (HBSS+10 mM LiCl and 1% w/v HSA), Lysis buffer (10 mM formic acid), and SPA YSI beads (12.5 mg/ml in H2O). The assay was performed the day after transfection. Briefly, labelling medium was aspirated, and plates were washed ×1 in wash buffer before adding 100 μl assay buffer 0.2% OvAlb or assay buffer 1% HSA, pre-incubated for 30 min followed by 120 min incubation with agonist, both at 37° C. After incubation, plates were immediately placed on ice and the incubation medium was aspirated and 40 μl of 10 mM formic acid per well was added. Plates were incubated for at least 30 min on ice. 60 μl (1 mg/well) SPA YSI beads/well was pipetted into a solid white 96 wells plate and 35 μl of the lysis solution was transferred to the plate before covering plates with seal cover and shaking for 10 min. (max speed). Centrifuge plates and leave for 8 hours at room temperature before counting the plates in a MicroBeta plate counter (Perkin Elmer).

[2] = Energy expenditure screening by indirect calorimetry in diet-induced obese mice; type: in vivo; conditions: DIO mice, 0.5 mg/kg s.c., increase over vehicle
Method: Indirect calorimetry was used to evaluate the ability of individual peptide analogues to dose-dependently increase energy expenditure (EE) we used metabolic cages and indirect calorimetry measured by the Promethion system. To this end, oxygen consumption was used as a surrogate measure for EE. Substrate preference (fat or carbohydrate) was evaluated using the respiratory exchange ratio (RER). In parallel, behavioral information such as walking distance and water and food intake were recorded.
Prior to experimentation, DIO mice were transferred to habituation cages for at least 10 days (5 days outside and at least 5 days in the Sable Systems gas analyzer module) to acclimatize. For all in vivo compound tests for EE evaluation, mice received subcutaneous injections between 2 and 4 pm.
Energy expenditure screening: After habituation, mice were subcutaneously injected with 0.5 mg/kg peptide analogue in a volume of 2 ml/kg. Mice were injected q.a.d. (quaque altera die) and received a total of two injections. EE was evaluated and increase over vehicle was calculated as percent of mean oxygen consumption over a 30-hour period after injection. Prior to injection peptide analogues were dissolved to 0.25 mg/ml in in vivo buffer.

[3] = Intraperitoneal glucose tolerance test (ipGTT) in DIO mice; type: in vivo; conditions: 325 nmol/kg s.c. once, test 24 hours after treatment
Method: Glucose tolerance test: The effect on glucose tolerance was determined using intraperitoneal glucose tolerance test (ipGTT) 24 hours after single subcutaneous injection of NK2R-selective analogue in DIO mice. At day of experimentation, mice were fasted four hours prior to receiving 1 g/kg glucose diluted in saline solution ([…]) by intraperitoneal injection. Change in glucose was monitored using glucometer.

[4] = Intraperitoneal insulin tolerance test (ipITT) in DIO mice; type: in vivo; conditions: 325 nmol/kg s.c. once, test 24 hours after treatment
Method: Insulin tolerance test: The effect on insulin tolerance was determined using intraperitoneal insulin tolerance test (ipITT) 24 hours after single subcutaneous injection of NK2R-selective analogue in DIO mice. At day of experimentation, mice were fasted two hours prior to receiving 1.5 U/kg insulin diluted in saline solution (0.2 mL/kg) by intraperitoneal injection. Change in glucose was monitored using glucometer.

[5] = Loperamide-induced dysfunctional voiding test; type: in vivo; conditions: lean wild-type mice, Loperamide 5 mg/kg, compound 130, 260, 325 nmol/kg s.c.
Method: Dysfunctional voiding test: To investigate the effect on dysfunctional voiding, constipation was induced in lean wild-type, male and female, mice using Loperamide (5 mg/kg). 30 minutes after gavage, mice were subcutaneously dosed with either vehicle, 130, 260 and for males also 325 nmol/kg of EB344. 6 hours post Loperamide gavage, mice were removed from the cage and number of feces pellets were counted.

SMILES | hNK2R, Albumin binding Efficacy (%)-ovalbumin [1] | hNK2R, Albumin binding Efficacy (%)-1% human serum albumin [1] | EC50 [1] | Energy expenditure (percent of vehicle; based on 30 h average vO2) [2] | Glucose tolerance (ipGTT) [3] | Insulin tolerance (ipITT) [4] | Loperamide-induced dysfunctional voiding (number of feces pellets during six hours) [5]
CCCC[C@H](NC(=O)[C@H](CC(C)C)N(C)C(=O)CNC(=O)[C@@H](NC(=O)[C@H](Cc1ccc(O)cc1)NC(=O)[C@H](CCCCN)NC(=O)[C@H](CC(=O)O)NC(=O)COCCOCCNC(=O)COCCOCCNC(=O)CC[C@H](NC(=O)CCCCCCCCCCCCCCCCC(=O)O)C(=O)O)C(C)C)C(N)=O [compound 305, *Asp;Lys;Tyr;Val;Gly;NmLeu;Nle;NH2] ({C18 diacid-γGlu-AEEA-AEEA}-DKYVG[NMeL][Nle]-NH2) | 83% | 45-51% | 260 nM | 9% of vehicle |  |  | 
COCC[C@H](NC(=O)[C@H](CC(C)C)N(C)C(=O)CNC(=O)[C@@H](NC(=O)[C@H](Cc1ccc(O)cc1)NC(=O)[C@H](CCCCN)NC(=O)[C@H](CC(=O)O)NC(=O)COCCOCCNC(=O)COCCOCCNC(=O)CC[C@H](NC(=O)CCCCCCCCCCCCCCCCC(=O)O)C(=O)O)C(C)C)C(N)=O [compound 344, *Asp;Lys;Tyr;Val;Gly;NmLeu;Metox;NH2] ({C18 diacid-γGlu-AEEA-AEEA}-DKYVG[NMeL][hSer](Me)-NH2) | 95% | 60% | 260 nM |  | improved both glucose and insulin tolerance | improved both glucose and insulin tolerance | improved Loperamide-induced dysfunctional voiding in a dose-dependent manner
